The values that follow come from patent publication US6727268B2, “2-thioxothiazole derivative, method for preparing the same, and pharmaceutical composition containing the same” (CJ Corp., priority 2002, dated 2004).

Each structure is given as a SMILES string.

One data set addresses T1, COX-1 (Homo sapiens, UniProt P23219).
T1 construct: host or cells: U-937 human lymphoma cells
In words: Assay for the COX-1 inhibitory activity using U-937 (PGE2 inhibition). The class given is cell-based. The following applies: 1 μM test compound; U-937 human lymphoma cells; arachidonic acid substrate; PGE2 vs DMSO control; read-out: Cyclooxygenase (COX) Inhibition (%) COX-1 (1 μM). How it is done: The collected cells were diluted with HBSS (×1, Hank's balanced salt solution) to a concentration of 1×10^6 cells/ml. 1 ml of the dilute cell solution was placed into each well of 12-well plates. 5 μl of 1 μM solution of a test compound in DMSO and 5 μl of DMSO as a control were added to the wells. The wells were incubated in CO2 incubator at 37° C. for 15 minutes. Separately, 10 mM stock solution of arachidonic acid in ethanol was diluted ten times in ethanol to prepare 1 mM solution of arachidonic acid. Arachidonic acid acts as a substrate. 10 μl of the 1 mM solution of arachidonic acid was added to each well and incubated at CO2 incubator at 37° C. for 30 minutes. The cell solution of each well was placed in a centrifuge test tube and centrifuged at 10,000 rpm at 4° C. for 5 minutes. The concentration of PGE2 in the collected cells and the supernatant was quantified by means of a monoclonal kit (Cayman Chemicals). The percentages of PGE2 inhibition in a group of the test compound-treated cells in relation to a group of the DMSO-treated cells were calculated. Based on the calculated values, the COX-1 inhibitory activities were evaluated.
(§1) The percentages of the COX inhibition were calculated according to the following equation: [formula]

The next data set deals with T2, COX-2 (Mus musculus, UniProt Q05769).
T2 construct: host or cells: RAW 264.7 cells, pre-treated with aspirin and induced with interferon and LPS
T2 sequence (Q05769 18-604): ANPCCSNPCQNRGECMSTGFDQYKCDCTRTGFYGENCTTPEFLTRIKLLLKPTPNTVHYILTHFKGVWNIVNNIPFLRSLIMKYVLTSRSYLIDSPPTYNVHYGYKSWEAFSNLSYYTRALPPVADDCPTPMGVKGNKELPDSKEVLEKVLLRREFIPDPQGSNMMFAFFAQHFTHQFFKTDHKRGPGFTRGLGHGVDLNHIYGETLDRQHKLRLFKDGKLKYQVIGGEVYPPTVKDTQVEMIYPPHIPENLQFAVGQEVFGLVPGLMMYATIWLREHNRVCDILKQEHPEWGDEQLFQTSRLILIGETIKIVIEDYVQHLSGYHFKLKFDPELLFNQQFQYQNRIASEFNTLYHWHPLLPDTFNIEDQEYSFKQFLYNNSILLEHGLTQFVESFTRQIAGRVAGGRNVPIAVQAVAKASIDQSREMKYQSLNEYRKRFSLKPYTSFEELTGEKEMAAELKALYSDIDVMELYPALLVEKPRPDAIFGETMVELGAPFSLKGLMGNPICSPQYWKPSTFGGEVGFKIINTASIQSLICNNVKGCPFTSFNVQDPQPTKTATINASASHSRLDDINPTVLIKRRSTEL
The experiment in a line: Assay for the COX-2 inhibitory activity using RAW 264.7 cell line (PGE2, EIA). The class given is cell-based. The following applies: RAW264.7, 10 nM test compound, RAW 264.7 cells, aspirin pre-treated, interferon + LPS 18 hours, read-out: Cyclooxygenase (COX) Inhibition (%) COX-2 (10 nM). How it is done: Each well was treated with 250 μM of aspirin and incubated at 37° C. for 2 hours. After the culture media were replaced with new culture media, the new culture media were treated with a test compound (10 nM) and incubated for 30 minutes. Then, each well was treated with interferon ? (100 units/ml) and lipopolysaccharide (LPS, 100 ng/ml) and incubated for 18 hours. The culture media were transferred to other test tubes. The concentration of PGE2 was quantified by means of the EIA kit (Cayman Chemicals).
as §1

T1 sequence (P23219 24-599): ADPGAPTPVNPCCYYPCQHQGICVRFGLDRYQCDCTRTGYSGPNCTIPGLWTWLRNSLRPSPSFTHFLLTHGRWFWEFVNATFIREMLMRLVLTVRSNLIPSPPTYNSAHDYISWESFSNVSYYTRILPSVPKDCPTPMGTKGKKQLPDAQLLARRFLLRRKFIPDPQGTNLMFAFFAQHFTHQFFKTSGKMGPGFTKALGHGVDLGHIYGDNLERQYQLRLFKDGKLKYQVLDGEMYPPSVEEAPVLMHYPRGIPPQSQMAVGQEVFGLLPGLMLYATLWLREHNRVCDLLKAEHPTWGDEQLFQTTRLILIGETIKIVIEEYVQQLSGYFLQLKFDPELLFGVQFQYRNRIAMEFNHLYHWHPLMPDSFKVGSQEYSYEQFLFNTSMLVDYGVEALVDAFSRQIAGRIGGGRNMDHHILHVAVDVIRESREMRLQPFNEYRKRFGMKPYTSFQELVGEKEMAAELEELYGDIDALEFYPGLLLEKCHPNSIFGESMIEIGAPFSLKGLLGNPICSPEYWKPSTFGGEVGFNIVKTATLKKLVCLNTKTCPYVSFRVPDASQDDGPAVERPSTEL

For the molecule `NS(=O)(=O)c1ccc(-n2c(-c3ccc(Cl)cc3)csc2=S)cc1` [Example 6, 4-[4-(4-chlorophenyl)-2-thioxothiazole-3-yl]benzenesulfonamide], the melting point is 242 °C. Besides, at COX-1, the inhibition at 1 µM is 38.5%. The inhibition at 0.01 µM at COX-2 is 73.5%.

On to `NS(=O)(=O)c1ccc(-n2c(-c3ccccc3)csc2=S)cc1` [Example 1, 4-(4-phenyl-2-thioxothiazole-3-yl)benzenesulfonamide], for which the melting point was 235 °C. For the same molecule, the inhibition at 1 µM at COX-1 worked out at 28.5%. Further, the inhibition at 0.01 µM at COX-2 was determined as 60.9%.

`Cc1onc(-c2ccccc2)c1-c1ccc(S(N)(=O)=O)cc1` [Reference (Valdecoxib), Valdecoxib, reference compound]: at COX-1, the inhibition at 1 µM was determined as 29.5%.

`NS(=O)(=O)c1ccc(-n2c(-c3cccc([N+](=O)[O-])c3)csc2=S)cc1` [Example 5, 4-[4-(3-nitrophenyl)-2-thioxothiazole-3-yl]benzenesulfonamide] returned a melting point of 284 °C. In addition, the inhibition at 1 µM on COX-1 was 15.8%. The inhibition at 0.01 µM on COX-2 was found to be 75%.

For the molecule `Cc1sc(=S)n(-c2ccc(S(N)(=O)=O)cc2)c1-c1ccccc1` [Example 2, 4-(5-methyl-4-phenyl-2-thioxothiazole-3-yl)benzenesulfonamide], the melting point came out at 262 °C. Moreover, the inhibition at 1 µM at COX-1 came out at 35.2%. Also, the inhibition at 0.01 µM on COX-2 came out at 66.5%.

Consider `NS(=O)(=O)c1ccc(-n2c(-c3ccc(F)cc3)csc2=S)cc1` [Example 4, 4-[4-(4-fluorophenyl)-2-thioxothiazole-3-yl]benzenesulfonamide], for which the melting point worked out at 271 °C. The inhibition at 1 µM on COX-1 amounted to 31.1%. In addition, the inhibition at 0.01 µM on COX-2 worked out at 72.7%.

Molecule `CS(=O)(=O)c1ccc(-c2csc(=S)n2-c2ccc(S(N)(=O)=O)cc2)cc1` [Example 3, 4-[4-(4-methanesulfonylphenyl)-2-thioxothiazole-3-yl]benzenesulfo namide] displayed a melting point of 288 °C. The inhibition at 1 µM at COX-1 was found to be 30.7%. In addition, on COX-2, the inhibition at 0.01 µM stood at 65.8%.
